Common to all, as to assay type: cell-based, human
Experiment [1] deals with U1 dsRNA binding on the surface of NHEKs. Nature of the experiment: Surface binding of Alexa 488-labeled U1 dsRNA to NHEKs. The settings on record: Alexa 488 U1 0.05-10 μg/ml + peptide 2.5 μM, 10 min on ice; fluorometer RFU, n = 3. The protocol: We also assayed the dynamics of binding of U1 dsRNA on the surface of NHEKs in the presence of LL-34 mutant peptides. NHEKs were exposed to fluorescent Alexa 488–labeled U1 at increasing concentrations (0.05–10 μg/ml) and LL-34 parent peptide, LL-34 I24A, LL-34 L31A, LL-34 K25A, and LL-34 proline at isoleucine position 20 (I20P) for 10 min on ice to allow for surface binding of U1 to cells in the presence of peptides (Fig. 5A).
Figure 5 Biophysical properties of binding of U1 dsRNA to LL-34 peptides and SRB1 protein.A, NHEKs were treated with Alexa 488–labeled U1 dsRNA or a combination of Alexa 488–labeled U1 dsRNA (0.05–10 μg/ml) and LL-34 peptides LL-34 parent, LL-34 I24A, LL-34 K25A, LL-34 L31A, and LL-34 I20P at 2.5 μM as shown. The cells were prechilled on ice for 15 min before the addition of U1 dsRNA and/or LL-34 peptides, and the surface binding of U1 dsRNA was allowed for 10 min. The amount of U1 dsRNA binding to NHEKs was assessed with a fluorometer, and data are represented as relative fluorescence units (RFUs) (n = 3). B, NHEKs were similarly treated with Alexa-labeled U1 dsRNA (1.5 μg/ml) and/or unlabeled U1 dsRNA (15 μg/ml) with the addition of LL-34 parent peptide at 2.5 μM. The experiment was performed on ice for 10 min, and the relative binding of Alexa 488 U1 dsRNA was assessed on a fluorometer and is shown as RFU (n = 3) (∗p < 0.05) one-way ANOVA. C, SAXS spectra of LL-34 peptides LL-34 parent, LL-34 F5A, LL-34 I24A, and LL-34 L31A incubated with U1 dsRNA. The peptide-U1 dsRNA (P/R) ratio is varied at 1 and 2 for all conditions. The U1 dsRNA interhelical spacing (Q) was calculated by the peak position. The domain size (L) was calculated by the full width at half maximum of the first peak. LL-34, 34-amino acid peptide; NHEKs, normal human epidermal keratinocytes; SAXS, small-angle X-ray scattering.

The subject of experiment [2] is NHEKs, IL-6 secretion in response to U1 dsRNA. Nature of the experiment: IL-6 secretion ELISA in NHEKs. The note with it: U1 dsRNA 2.5 μg/ml + peptide 2 μM, 18 h, n = 3. An outline of the steps:
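NHEKs (also HDMECs) exposed to LL-34 parent or alanine-scan peptides at 2 μM, alone or with U1 dsRNA (2.5 μg/ml), for 18 h. Secreted IL-6 in supernatant quantified by sandwich ELISA (n = 3).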

The test system of experiment [3] is NHEKs, IL6, IFNB1, TSLP, CXCL10 mRNA. The experiment is described as follows: qRT-PCR gene expression in NHEKs. The note with it: 18 h / 8 h (Fig. 1 legend), n = 3; for Gene expression of IL6, IFNB1, and CXCL10, cotreatment with U1 dsRNA: U1 dsRNA 2.5 μg/ml + peptide 2 μM; for Gene expression of TSLP, peptide alone / Basal expression of IL6, IFNB1, and CXCL10, peptide alone: peptide 2 μM alone; for Gene expression of TSLP, peptide alone: GAPDH reference. As for the experimental part: Protein levels of human IL-6 were analyzed from cell supernatant with ELISA (n = 3). Corresponding MIC values of LL-34 peptides L1A–R34A against Staphylococcus aureus USA300 are shown in the heat map. B, human dermal endothelial cells (HDMECs) were treated with either U1 dsRNA (2.5 μg/ml) or a combination of U1 dsRNA (2.5 μg/ml) and LL-34 peptides (Pep 1–Pep 34 and Pep–parent LL-34) at 2 μM for 18 h. IL-6 ELISA results are shown (n = 3). Green bars denote loss of IL-6 protein secretion compared with parent control shown in red. C, helical wheel plot for LL-34. Amino acids with green circles denote specific residues where replacement with an alanine caused the loss of IL-6 secretion compared with parent LL-34 peptide in NHEKs cotreated with U1 dsRNA. D, in the helical wheel plot for LL-34, circled green amino acids indicate that a substitution caused a loss of vetting in HDMEC. E–H, NHEKs were treated with LL-34-parent peptide (LL-34-P), LL-34-F5A, LL-34-I24A, LL-34-F27A, and LL-34-L31A at 2 μM, either individually or in combination with U1 dsRNA (2.5 μg/ml) for 8 h. Gene expression of IL-6, IFNB1, TSLP, and CXCL10 was assessed with qRT-PCR. GAPDH was used as a reference gene (n = 3) (∗p < 0.05; ∗∗∗∗p < 0.0001). One way-ANOVA was used. IL-6, interleukin 6; LL-34, 34-amino acid peptide; MIC, minimum inhibitory concentration, ns, not significant.
We further looked at mRNA abundance by quantitative RT-PCR (qRT-PCR) to evaluate gene expression for type 1 interferon IFNB1, chemokine CXCL10, and cytokines TSLP and IL6 in NHEKs treated with selected LL-34 parent, LL-34—F5A, I24A, F27A, and L31A—peptides either alone or in combination with U1 dsRNA for 18 h (Fig. 1, E–H).
RNA extracted from cells (Pure Link RNA Isolation Kit; Life Technologies) was quantified on the Nanodrop 2000/200C Spectrophotometer (Thermo Fisher Scientific). About 500 ng of purified RNA was used to synthesize complementary DNA with iScript cDNA Synthesis Kit (Bio-Rad). Predeveloped Taqman (Thermo Fisher Scientific) gene expression assays were used to evaluate mRNA transcript levels. Taqman cycling conditions were used as previously described ([9], [45]). All experiments were performed on a CFX96 system (Bio-Rad). Fold change relative to GAPDH was calculated using the Livak ΔΔCt method ([46]).
Background: Quantitative PCR measures a nucleic acid by following its amplification.

Structures are written as SMILES. Residues, ends and D or L forms follow the SMILES beside them.

As for `CC[C@H](C)[C@H](NC(=O)[C@H](CCCCN)NC(=O)[C@H](CCC(=O)O)NC(=O)[C@H](CCCCN)NC(=O)[C@H](CO)NC(=O)[C@H](CCCCN)NC(=O)[C@H](CCCNC(=N)N)NC(=O)[C@H](Cc1ccccc1)NC(=O)[C@H](Cc1ccccc1)NC(=O)[C@H](CC(=O)O)NC(=O)CNC(=O)[C@H](CC(C)C)NC(=O)[C@@H](N)CC(C)C)C(=O)NCC(=O)N[C@@H](CCCCN)C(=O)N[C@@H](CCC(=O)O)C(=O)N[C@@H](Cc1ccccc1)C(=O)N[C@@H](CCCCN)C(=O)N[C@@H](CCCNC(=N)N)C(=O)N[C@H](C(=O)N[C@H](C(=O)N[C@@H](CCC(N)=O)C(=O)N[C@@H](CCCNC(=N)N)C(=O)N[C@@H](C)C(=O)N[C@@H](CCCCN)C(=O)N[C@@H](CC(=O)O)C(=O)N[C@@H](Cc1ccccc1)C(=O)N[C@@H](CC(C)C)C(=O)N[C@@H](CCCNC(=N)N)C(=O)N[C@@H](CC(N)=O)C(=O)N[C@@H](CC(C)C)C(=O)N[C@H](C(=O)N1CCC[C@H]1C(=O)N[C@@H](CCCNC(=N)N)C(=O)O)C(C)C)C(C)C)[C@@H](C)CC` [LL-34—I24A] (H-LLGDFFRKSKEKIGKEFKRIVQRAKDFLRNLVPR-OH), the “Binding of Alexa 488-labeled U1 dsRNA on the NHEK cell surface” value in experiment [1] is on record as “nonsaturable binding”. Also, in experiment [2], the “IL-6 protein secretion, cotreatment with U1 dsRNA, vs U1 dsRNA + LL-34 parent” value was “reduced secretion of IL-6 protein”. In experiment [3], the “Gene expression of IL6, IFNB1, and CXCL10, cotreatment with U1 dsRNA” value is listed as “reduction in gene expression”; the “Gene expression of TSLP, peptide alone” value was “increased gene expression of TSLP”; the “Basal expression of IL6, IFNB1, and CXCL10, peptide alone” value is “not affected”.
In the case of `CC[C@H](C)[C@H](NC(=O)[C@H](CCCCN)NC(=O)[C@H](CCC(=O)O)NC(=O)[C@H](CCCCN)NC(=O)[C@H](CO)NC(=O)[C@H](CCCCN)NC(=O)[C@H](CCCNC(=N)N)NC(=O)[C@H](Cc1ccccc1)NC(=O)[C@H](Cc1ccccc1)NC(=O)[C@H](CC(=O)O)NC(=O)CNC(=O)[C@H](CC(C)C)NC(=O)[C@@H](N)CC(C)C)C(=O)NCC(=O)N[C@@H](CCCCN)C(=O)N[C@@H](CCC(=O)O)C(=O)N[C@@H](Cc1ccccc1)C(=O)N[C@@H](CCCCN)C(=O)N[C@@H](CCCNC(=N)N)C(=O)N[C@H](C(=O)N[C@H](C(=O)N[C@@H](CCC(N)=O)C(=O)N[C@@H](CCCNC(=N)N)C(=O)N[C@H](C(=O)N[C@@H](CCCCN)C(=O)N[C@@H](CC(=O)O)C(=O)N[C@@H](Cc1ccccc1)C(=O)N[C@@H](CC(C)C)C(=O)N[C@@H](CCCNC(=N)N)C(=O)N[C@@H](CC(N)=O)C(=O)N[C@@H](C)C(=O)N[C@H](C(=O)N1CCC[C@H]1C(=O)N[C@@H](CCCNC(=N)N)C(=O)O)C(C)C)[C@@H](C)CC)C(C)C)[C@@H](C)CC` [LL-34—L31A] (H-LLGDFFRKSKEKIGKEFKRIVQRIKDFLRNAVPR-OH), in experiment [1], the “Binding of Alexa 488-labeled U1 dsRNA on the NHEK cell surface” value is reported as “nonsaturable binding”. Also, in experiment [2], the “IL-6 protein secretion, cotreatment with U1 dsRNA, vs U1 dsRNA + LL-34 parent” value is listed as “reduced secretion of IL-6 protein”. In experiment [3], the “Gene expression of IL6, IFNB1, and CXCL10, cotreatment with U1 dsRNA” value is reported as “reduction in gene expression”; the “Gene expression of TSLP, peptide alone” value is “increased gene expression of TSLP”; the “Basal expression of IL6, IFNB1, and CXCL10, peptide alone” value was “not affected”.

Values taken from article PMC8214221, “Sequence determinants in the cathelicidin LL-37 that promote inflammation via presentation of RNA to scavenger receptors” (The Journal of Biological Chemistry, 2021).
